The NIST ThermoML archive (doi:10.1021/je060033f)
Numbers after ± are expanded uncertainties.

Assay: activity coefficient (dimensionless); of the first substance listed, at infinite dilution; xn = mol fraction of the nth substance listed
Conditions: 323.15 K; 101 kPa; Liquid; Chromatography; x1 = 0

SMILES	activity coefficient
CO [methanol] + CCCCCCCCCCCC[n+]1ccn(CCCB(O)O)c1.[Br-]	0.04
CC#N [acetonitrile] + CCCCCCCCCCCC[n+]1ccn(CCCB(O)O)c1.[Br-]	1.16 ± 0.07
C1CCCCC1 [cyclohexane] + CCCCCCCCCCCC[n+]1ccn(CCCB(O)O)c1.[Br-]	3.25 ± 0.22
C1COCCO1 [1,4-dioxane] + C=CCn1cc[n+](C)c1.[Br-]	1.59 ± 0.11
CO [methanol] + C=CC[n+]1ccn(CCCCCCCCCC)c1.[Br-]	0.17 ± 0.03
CC(C)O [propan-2-ol] + C=CC[n+]1ccn(CCCCCCCCCC)c1.[Br-]	0.35 ± 0.03
Cc1cccc(C)c1 [1,3-dimethylbenzene] + C=CC[n+]1ccn(CCCCCCCCCCCC)c1.[Br-]	1.85 ± 0.12
CC#N [acetonitrile] + C[n+]1ccn(CCCB(O)O)c1.[Br-]	3.3 ± 0.22
CCC(C)=O [butanone] + CCCCCCCCCC[n+]1ccn(CCCB(O)O)c1.[Br-]	1.59 ± 0.11
CCC(C)=O [butanone] + CCCCCCCC[n+]1ccn(CCCB(O)O)c1.[Br-]	1.88 ± 0.13
CC#N [acetonitrile] + CCCCCCCCCC[n+]1ccn(CCCB(O)O)c1.[Br-]	0.95 ± 0.06
CCOCC [diethyl ether] + C=CC[n+]1ccn(CCCCCCCCCC)c1.[Br-]	3.54 ± 0.24
ClC(Cl)(Cl)Cl [tetrachloromethane] + C[n+]1ccn(CCCB(O)O)c1.[Br-]	21.2 ± 1.4
ClCCl [dichloromethane] + C=CC[n+]1ccn(CCCCCCCCCCCC)c1.[Br-]	0.25 ± 0.03
c1ccccc1 [benzene] + C=CC[n+]1ccn(CCCCCCCCCC)c1.[Br-]	1.39 ± 0.09
ClC(Cl)(Cl)Cl [tetrachloromethane] + CCCCCCCC[n+]1ccn(CCCB(O)O)c1.[Br-]	1.23 ± 0.08
ClC(Cl)(Cl)Cl [tetrachloromethane] + C=CC[n+]1ccn(CCCCCCCCCCCC)c1.[Br-]	0.7 ± 0.05
c1ccccc1 [benzene] + C=CC[n+]1ccn(CCCCCCCCCCCC)c1.[Br-]	1.08 ± 0.07
Cc1cccc(C)c1 [1,3-dimethylbenzene] + C=CCn1cc[n+](C)c1.[Br-]	11.1 ± 0.76
CC#N [acetonitrile] + C=CC[n+]1ccn(CCCCCCCCCCCC)c1.[Br-]	0.86 ± 0.06
c1ccsc1 [thiophene] + C=CCn1cc[n+](C)c1.[Br-]	1.48 ± 0.1
c1ccsc1 [thiophene] + CCCCCCCCCCCC[n+]1ccn(CCCB(O)O)c1.[Br-]	0.9 ± 0.06
CCC[N+](=O)[O-] [1-nitropropane] + C=CC[n+]1ccn(CCCCCCCCCCCC)c1.[Br-]	1.12 ± 0.07
CCC(C)=O [butanone] + C=CC[n+]1ccn(CCCCCCCCCC)c1.[Br-]	1.48 ± 0.1
CCC[N+](=O)[O-] [1-nitropropane] + CCCCCCCCCC[n+]1ccn(CCCB(O)O)c1.[Br-]	1.19 ± 0.08
C1COCCO1 [1,4-dioxane] + C[n+]1ccn(CCCB(O)O)c1.[Br-]	11.2 ± 0.77

SMILES	activity coefficient
CC#N [acetonitrile] + C=CCn1cc[n+](C)c1.[Br-]	1.04 ± 0.07
CC#N [acetonitrile] + C=CC[n+]1ccn(CCCCCCCC)c1.[Br-]	0.98 ± 0.06
ClC(Cl)Cl [trichloromethane] + C=CCn1cc[n+](C)c1.[Br-]	0.25 ± 0.03
ClCCl [dichloromethane] + C[n+]1ccn(CCCB(O)O)c1.[Br-]	3.2 ± 0.22
Cc1ccccc1C [1,2-dimethylbenzene] + C=CC[n+]1ccn(CCCCCCCC)c1.[Br-]	2.39 ± 0.16
Cc1ccccc1 [toluene] + CCCCCCCCCC[n+]1ccn(CCCB(O)O)c1.[Br-]	1.8 ± 0.12
Cc1cccc(C)c1 [1,3-dimethylbenzene] + CCCCCCCCCCCC[n+]1ccn(CCCB(O)O)c1.[Br-]	1.98 ± 0.13
Cc1ccccc1 [toluene] + C=CC[n+]1ccn(CCCCCCCC)c1.[Br-]	1.92 ± 0.13
C1COCCO1 [1,4-dioxane] + C=CC[n+]1ccn(CCCCCCCCCCCC)c1.[Br-]	1.3 ± 0.08
C1CCCCC1 [cyclohexane] + C=CCn1cc[n+](C)c1.[Br-]	15.7 ± 1.1
CO [methanol] + C[n+]1ccn(CCCB(O)O)c1.[Br-]	0.05
c1ccsc1 [thiophene] + C=CC[n+]1ccn(CCCCCCCCCC)c1.[Br-]	0.89 ± 0.06
ClC(Cl)Cl [trichloromethane] + CCCCCCCC[n+]1ccn(CCCB(O)O)c1.[Br-]	0.23 ± 0.03
Cc1cccc(C)c1 [1,3-dimethylbenzene] + C[n+]1ccn(CCCB(O)O)c1.[Br-]	48.1 ± 3.3
Cc1ccccc1C [1,2-dimethylbenzene] + CCCCCCCCCC[n+]1ccn(CCCB(O)O)c1.[Br-]	1.89 ± 0.13
C1CCCCC1 [cyclohexane] + C=CC[n+]1ccn(CCCCCCCC)c1.[Br-]	5.66 ± 0.39
Cc1cccc(C)c1 [1,3-dimethylbenzene] + CCCCCCCCCC[n+]1ccn(CCCB(O)O)c1.[Br-]	2.11 ± 0.14
CCOCC [diethyl ether] + C=CC[n+]1ccn(CCCCCCCC)c1.[Br-]	4.18 ± 0.28
Cc1cccc(C)c1 [1,3-dimethylbenzene] + CCCCCCCC[n+]1ccn(CCCB(O)O)c1.[Br-]	3.57 ± 0.24
Cc1ccccc1C [1,2-dimethylbenzene] + CCCCCCCC[n+]1ccn(CCCB(O)O)c1.[Br-]	3.11 ± 0.21
Cc1ccccc1C [1,2-dimethylbenzene] + C=CC[n+]1ccn(CCCCCCCCCCCC)c1.[Br-]	1.66 ± 0.11
CO [methanol] + C=CCn1cc[n+](C)c1.[Br-]	0.18 ± 0.03
Cc1ccccc1 [toluene] + CCCCCCCC[n+]1ccn(CCCB(O)O)c1.[Br-]	2.41 ± 0.16
CCC(C)=O [butanone] + CCCCCCCCCCCC[n+]1ccn(CCCB(O)O)c1.[Br-]	1.33 ± 0.09
CCC(C)=O [butanone] + C=CC[n+]1ccn(CCCCCCCC)c1.[Br-]	1.46 ± 0.1

The remaining lines, values ahead:

activity coefficient	SMILES
0.23 ± 0.03	CCO [ethanol] + C=CC[n+]1ccn(CCCCCCCCCCCC)c1.[Br-]
8.27 ± 0.56	C#CCCCC [1-hexyne] + C=CCn1cc[n+](C)c1.[Br-]
2.56 ± 0.17	C#CCCCCC [1-heptyne] + C=CC[n+]1ccn(CCCCCCCC)c1.[Br-]
2.2 ± 0.15	C#CCCCCC [1-heptyne] + CCCCCCCCCCCC[n+]1ccn(CCCB(O)O)c1.[Br-]
6.37 ± 0.43	CCCCCCCC [octane] + C=CC[n+]1ccn(CCCCCCCCCCCC)c1.[Br-]
63 ± 4.3	CCCCCCCC [octane] + C=CCn1cc[n+](C)c1.[Br-]
24.2 ± 1.7	CCCC(C)=O [pentan-2-one] + C[n+]1ccn(CCCB(O)O)c1.[Br-]
65.6 ± 4.5	CCCCCCCCC [nonane] + C=CCn1cc[n+](C)c1.[Br-]
14.3 ± 0.98	CCCCCCCC [octane] + C=CC[n+]1ccn(CCCCCCCCCC)c1.[Br-]
0.29 ± 0.03	CC(C)CO [2-methyl-1-propanol] + C=CC[n+]1ccn(CCCCCCCCCC)c1.[Br-]
1.56 ± 0.1	C#CCCCC [1-hexyne] + C=CC[n+]1ccn(CCCCCCCCCCCC)c1.[Br-]
5.89 ± 0.4	C=CCCCC [hex-1-ene] + C=CC[n+]1ccn(CCCCCCCCCC)c1.[Br-]
11.1 ± 0.76	CCc1ccccc1 [ethylbenzene] + C=CCn1cc[n+](C)c1.[Br-]
2.22 ± 0.15	C#CCCCCC [1-heptyne] + CCCCCCCCCC[n+]1ccn(CCCB(O)O)c1.[Br-]
3.47 ± 0.24	C=CCCCC [hex-1-ene] + C=CC[n+]1ccn(CCCCCCCCCCCC)c1.[Br-]
2.77 ± 0.19	C#CCCCC [1-hexyne] + CCCCCCCC[n+]1ccn(CCCB(O)O)c1.[Br-]
1.67 ± 0.11	CCCC(C)=O [pentan-2-one] + CCCCCCCCCC[n+]1ccn(CCCB(O)O)c1.[Br-]
5.36 ± 0.37	CCCCCCC [heptane] + CCCCCCCCCCCC[n+]1ccn(CCCB(O)O)c1.[Br-]
0.27 ± 0.03	CCO [ethanol] + C=CCn1cc[n+](C)c1.[Br-]

activity coefficient	SMILES
83.2 ± 5.7	CCCCCCCCC [nonane] + C[n+]1ccn(CCCB(O)O)c1.[Br-]
20.2 ± 1.4	CCCCCCC [heptane] + CCCCCCCC[n+]1ccn(CCCB(O)O)c1.[Br-]
3.6 ± 0.25	C=CCCCC [hex-1-ene] + CCCCCCCCCCCC[n+]1ccn(CCCB(O)O)c1.[Br-]
81 ± 5.5	CCCCCCCC [octane] + C[n+]1ccn(CCCB(O)O)c1.[Br-]
2.04 ± 0.14	C#CCCCC [1-hexyne] + C=CC[n+]1ccn(CCCCCCCC)c1.[Br-]
0.54 ± 0.04	CCCO [propan-1-ol] + C=CCn1cc[n+](C)c1.[Br-]
2.54 ± 0.17	CCc1ccccc1 [ethylbenzene] + C=CC[n+]1ccn(CCCCCCCCCC)c1.[Br-]
2.58 ± 0.18	C#CCCCCC [1-heptyne] + C=CC[n+]1ccn(CCCCCCCCCC)c1.[Br-]
1.77 ± 0.12	CCc1ccccc1 [ethylbenzene] + C=CC[n+]1ccn(CCCCCCCCCCCC)c1.[Br-]
0.04	CO [methanol] + CCCCCCCC[n+]1ccn(CCCB(O)O)c1.[Br-]
8.39 ± 0.57	CCCCCC [hexane] + C=CC[n+]1ccn(CCCCCCCCCC)c1.[Br-]
0.33 ± 0.03	CC(C)CO [2-methyl-1-propanol] + C=CCn1cc[n+](C)c1.[Br-]
2.32 ± 0.16	CCCC(C)=O [pentan-2-one] + CCCCCCCC[n+]1ccn(CCCB(O)O)c1.[Br-]
18.2 ± 1.2	CCCCCC [hexane] + CCCCCCCC[n+]1ccn(CCCB(O)O)c1.[Br-]
0.28 ± 0.03	CCCO [propan-1-ol] + C=CC[n+]1ccn(CCCCCCCC)c1.[Br-]
26.2 ± 1.8	CCCCCCCCC [nonane] + CCCCCCCC[n+]1ccn(CCCB(O)O)c1.[Br-]
5.32 ± 0.36	CCCCCCC [heptane] + C=CC[n+]1ccn(CCCCCCCCCCCC)c1.[Br-]
6.99 ± 0.48	CCCCCCCCC [nonane] + CCCCCCCCCCCC[n+]1ccn(CCCB(O)O)c1.[Br-]
